Read-outs that look alike come from different tables or passages of the source.
Tests used:
pVHL30 [1] = biological target: T1, pVHL30 (Homo sapiens, UniProt P40337); experiment: Immunoblot of pVHL30 protein level in HeLa cells after compound treatment; format: cell-based; set-up: endogenous in cells; host or cells: HeLa; details: 10 h; for remaining pVHL30 protein level at 1 µM / remaining activity at 1 µM: read-out: pVHL30 band quantification normalized to 0.1% DMSO; for remaining activity at 1 µM: DMSO = 100, Fig. 4a; for remaining activity at 1 µM / depletion of target protein (pVHL30 / VHL): 1 µM
Protocol: (§1) Cell culture. Human cell lines HeLa, U2OS and HEK 293, purchased from ATCC, were propagated in DMEM supplemented with 10% fetal bovine serum (FBS), L- glutamine, 100 μg ml^−1 of penicillin/streptomycin at 37 °C and 5% CO2. Cells were maintained for no more than 30 passages. All cell lines were routinely tested for mycoplasma contamination using MycoAlert kit from Lonza. For compound treatment experiments, cells were transferred in six-well plates with either 3 × 10^5 or 5 × 10^5 cells per well in 2 ml of media. At 80% confluence, cells were treated with compounds at the desired concentration, reaching final DMSO concentration of 0.1% v/v. Cells were incubated at 37 °C and 5% CO2 for the desired time before harvesting.
(§2) Immunoblotting. Cells were lysed in lysis buffer (20 mM Tris pH 8, 150 mM NaCl, 1% Triton × 100) and a protease inhibitor cocktail (Roche) per 10 ml buffer. For protein extracts, the dishes were placed on ice. The media was aspirated and the tissue layer washed twice with ice-cold phosphate buffer saline (PBS). Lysis buffer (120 μl) was added and the cells detached from the surface with a cell scraper. After removal of the insoluble fraction by centrifugation, the protein concentration of the supernatant was determined by Pierce™ Coomassie (Bradford) Protein Assay Kit. Protein extracts were fractionated by SDS-PAGE on 4–12% Tris-Acetate NuPage® Novex® (Life Technologies) polyacrylamide gels and transferred to a nitrocellulose membrane using wet transfer. The membrane was then blocked with 5 % w/v Bovine serum albumin (BSA) in Tris-buffered saline (TBS) with 0.1% w/v Tween-20. For detecting proteins the following primary antibodies in the given concentrations were used: anti-β-Actin (Cell Signaling Technology, 4970S, 13E5) 1:2000, anti-VHL (Cell Signaling Technology, #68547) 1:1000, anti-Hif-1α (BD Biosciences, 610959, clone 54) 1:1,000, anti-hydroxy-HIF-1α (Hyp564) (Cell Signaling Techonology; #3434) 1:1,000, anti-PHD2 (Bethyl Laboratories; A300-322A) 1:1,000, anti-PHD3 (Bethyl Laboratories; A300-327A) 1:1000, anti-CRBN (Proteintech; 11435-1-AP) 1:1,000. Following incubation with a horseradish peroxidase-conjugated secondary antibody (Cell Signaling Technology), the signal was developed using enhanced chemiluminescence (ECL) Western Blotting Detection Kit (Amersham) on Amersham Hyperfilm ECL film (Amersham). Band quantification was performed using ImageJ software and reported as relative amount as ratio of the each protein band relative to the lane’s loading control. The values obtained were then normalized to 0.1% DMSO vehicle control. See Supplementary Fig. 12 for full-scanned images of western-blots shown in the main text figures.
Target sequence in this assay (P40337 whole entry): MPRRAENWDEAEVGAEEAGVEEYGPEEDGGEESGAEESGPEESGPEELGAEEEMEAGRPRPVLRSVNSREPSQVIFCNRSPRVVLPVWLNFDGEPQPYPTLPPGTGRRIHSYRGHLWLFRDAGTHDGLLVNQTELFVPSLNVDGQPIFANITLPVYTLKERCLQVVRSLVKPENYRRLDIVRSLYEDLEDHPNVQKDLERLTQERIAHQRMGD

pVHL19 [2] = biological target: T2, pVHL19 (Homo sapiens, UniProt P40337); experiment: Immunoblot of pVHL19 protein level in HeLa cells after compound treatment; format: cell-based; set-up: endogenous in cells; host or cells: HeLa; details: 10 h, read-out: pVHL19 band quantification normalized to 0.1% DMSO
Protocol: as §1, §2
Target sequence in this assay (P40337 54-213): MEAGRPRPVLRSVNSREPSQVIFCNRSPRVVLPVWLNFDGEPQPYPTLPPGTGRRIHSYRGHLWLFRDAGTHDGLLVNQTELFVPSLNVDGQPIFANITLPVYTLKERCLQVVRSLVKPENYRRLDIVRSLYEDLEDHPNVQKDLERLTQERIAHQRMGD
Target sequence in this assay (Q15369 whole entry partner): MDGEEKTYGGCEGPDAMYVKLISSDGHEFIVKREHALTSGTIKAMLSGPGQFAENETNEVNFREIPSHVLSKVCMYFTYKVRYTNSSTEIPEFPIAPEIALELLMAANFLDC
Target sequence in this assay (Q15370 whole entry partner): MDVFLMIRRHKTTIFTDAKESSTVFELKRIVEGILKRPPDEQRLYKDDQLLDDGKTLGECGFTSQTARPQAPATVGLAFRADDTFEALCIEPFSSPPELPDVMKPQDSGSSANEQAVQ

V19CB = biological target: T3, V19CB (Homo sapiens, UniProt P40337); experiment: Size-exclusion chromatography (SEC) of complex formation with V19CB; format: binding; details: VCB 50 µM, compound 30 µM
T3 construct: made in house
Protocol: (§3) Protein expression and purification. Human proteins VHL (UniProt accession number: P40337), ElonginC (Q15369), and ElonginB (Q15370) were used for all protein expression. The short-isoform-containing VCB complex (V19CB) was expressed, purified and stored as described previously. For expression of the long-isoform-containing VCB complex (V30CB), N-terminally His6-tagged VHL (1–213), ElonginC (17–112) and ElonginB (1–104) were co-expressed in Escherichia coli BL21(DE3) at 20 °C for 18 h using 0.5 mM isopropyl β-D-1-thiogalactopyranoside (IPTG). E. coli cells were resuspended in binding buffer (50 mM HEPES, pH 8.0, 500 mM NaCl, 10 mM imidazole and 5 mM β-mercaptoethanol), lysed using a pressure cell homogenizer (Stansted Fluid Power), and lysate clarified by centrifugation. The supernatant was loaded onto a HisTrap FF affinity column (GE Healthcare) equilibrated with binding buffer, and bound protein was eluted using an imidazole gradient. The His6 tag was removed using thrombin protease (Sigma), and the untagged complex was dialyzed into binding buffer. V30CB was then loaded onto the HisTrap FF column a second time, allowing impurities to bind as the complex eluted without binding. The flow-through was dialyzed using a low-salt buffer (20 mM HEPES, pH 8.0, 25 mM NaCl and 1 mM DTT) and then loaded onto a Resource Q anion exchange column (GE Healthcare); bound protein was eluted across a linear NaCl gradient. V30CB was then additionally purified by size-exclusion chromatography using a Superdex-75 16/600 column (GE Healthcare) equilibrated with 20 mM HEPES, pH 7.5, 100 mM sodium chloride and 1 mM TCEP. All chromatography purification steps were performed using Äkta FPLC purification systems (GE Healthcare).
Size-exclusion chromatography (SEC). SEC experiments were carried out in a ÄKTA pure system (GE Healthcare) at room temperature. The oligomeric state of the VCB complex in solution was analyzed by gel filtration in a buffer containing 20 mM Bis-Tris (pH 7), 150 mM NaCl and 1 mM 1,4-dithiothreitol (DTT) using a Superdex 200 Increase 10/300 GL column (GE Healthcare) calibrated with globular proteins of known molecular weight (GE Healthcare, 28-4038-41/42). […] Sample volume for each injection was 200 µl, and the flow rate was 0.5 ml min^−1. Peak elution was monitored using ultraviolet absorbance at 280 nm.

pVHL19 [3] = biological target: T2, pVHL19; experiment: Isothermal titration calorimetry (ITC) against VCB complex with short VHL isoform (V19CB); format: binding; set-up: made in house; details: ITC
Protocol: as §3
(§4) Isothermal titration calorimetry (ITC). Titrations were performed on an ITC200 micro-calorimeter (GE Healthcare). […] The final DMSO concentration was 0.15% v/v. VCB protein experiments were carried out in a buffer containing 20 mM Bis-tris propane, 150 mM NaCl, 1 mM TCEP, 0.15% v/v DMSO, pH 7.4. The titrations consisted of 19 injections of 2 µL compounds solution (150 µM, in the syringe) at a rate of 0.5 µl s^−1 at 120 s time intervals into the VCB protein solution (20 µM, in the cell). An initial injection of compound solution (0.4 µL) was made and discarded during data analysis. All experiments were performed at 25 °C, whilst stirring the syringe at 600 rpm. The data were fitted to a single binding site model to obtain the stoichiometry n, the dissociation constant K d and the enthalpy of binding ΔH using the Microcal LLC ITC200 Origin software provided by the manufacturer.
Target sequence in this assay (P40337 54-213): as the sequence (P40337 54-213) above
Target sequence in this assay (Q15369 17-112 partner limits assumed): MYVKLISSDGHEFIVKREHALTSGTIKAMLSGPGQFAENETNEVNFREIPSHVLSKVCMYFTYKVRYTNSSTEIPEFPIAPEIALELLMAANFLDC
Target sequence in this assay (Q15370 1-104 partner limits assumed): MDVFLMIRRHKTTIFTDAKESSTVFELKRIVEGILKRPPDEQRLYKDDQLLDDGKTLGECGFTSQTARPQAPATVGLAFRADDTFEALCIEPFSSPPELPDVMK

pVHL30 [4] = biological target: T1, pVHL30; experiment: Isothermal titration calorimetry (ITC) against VCB complex with long VHL isoform (V30CB); format: binding; set-up: N-terminally His6-tagged VHL (1–213), ElonginC (17–112) and ElonginB (1–104) were co-expressed; His6 (N, cleaved yes); made in house; host or cells: Escherichia coli BL21(DE3); details: 25 °C
Protocol: as §3, §4
Target sequence in this assay (P40337 whole entry): as the sequence (P40337 whole entry) above
Target sequence in this assay (Q15369 17-112 partner limits assumed): as the sequence (Q15369 17-112 partner limits assumed) above
Target sequence in this assay (Q15370 1-104 partner limits assumed): as the sequence (Q15370 1-104 partner limits assumed) above

T3 sequence (P40337 54-213): as the sequence (P40337 54-213) above
T3 sequence (Q15369 17-112 partner limits assumed): as the sequence (Q15369 17-112 partner limits assumed) above
T3 sequence (Q15370 1-104 partner limits assumed): as the sequence (Q15370 1-104 partner limits assumed) above

Structure (SMILES)	remaining activity at 1 µM (pVHL30 [1]) [%]	remaining activity at 1 µM (pVHL19 [2]; 1 µM, DMSO = 100, Fig. 4a) [%]	shift of VCB peak / ternary complex formation in SEC (V19CB)	depletion of target protein (pVHL30 / VHL) (pVHL30 [1])	remaining pVHL30 protein level at 1 µM (pVHL30 [1]) [%]	remaining activity at 1 µM (pVHL19 [2]) [%]	further results
Cc1ncsc1-c1ccc(CNC(=O)[C@@H]2C[C@@H](O)CN2C(=O)[C@@H](NC(=O)COCCOCCOCCOCCOCCOc2cc(-c3scnc3C)ccc2CNC(=O)[C@@H]2C[C@@H](O)CN2C(=O)[C@@H](NC(=O)C2(C#N)CC2)C(C)(C)C)C(C)(C)C)cc1 [CMP113]					121	111	
Cc1ncsc1-c1ccc(CNC(=O)[C@@H]2C[C@H](O)CN2C(=O)[C@@H](NC(=O)COCCOCCOCCOCCOCCOCC(=O)N[C@H](C(=O)N2C[C@@H](O)C[C@H]2C(=O)NCc2ccc(-c3scnc3C)cc2)C(C)(C)C)C(C)(C)C)cc1 [CMP98, N ^1 ,N ^20-bis((S)-1-((2S,4S)-4-hydroxy-2-((4-(4-methylthiazol-5-yl)benzyl)carbamoyl)pyrrolidin-1-yl)-3,3-dimethyl-1-oxobutan-2-yl)-3,6,9,12,15,18-hexaoxaicosanediamide]	108	104	No shift	unable to induce degradation of VHL			binding to VCB by ITC (pVHL19 [3]; qualitative): binding was not detected
CC(=O)N[C@H](C(=O)N1C[C@H](O)C[C@H]1C(=O)NCc1ccc(-c2scnc2C)cc1OCCOCCOCCOCCOCCOc1cc(-c2scnc2C)ccc1CNC(=O)[C@@H]1C[C@@H](O)CN1C(=O)[C@@H](NC(C)=O)C(C)(C)C)C(C)(C)C [CMP106]					114	93	

Now from value to compound, other results behind:

remaining activity at 1 µM (pVHL30 [1]) [%]	remaining activity at 1 µM (pVHL19 [2]; 1 µM, DMSO = 100, Fig. 4a) [%]	shift of VCB peak / ternary complex formation in SEC (V19CB)	depletion of target protein (pVHL30 / VHL) (pVHL30 [1])	Structure (SMILES)	remaining pVHL30 protein level at 1 µM (pVHL30 [1]) [%]	remaining activity at 1 µM (pVHL19 [2]) [%]	further results
126	97			Cc1ncsc1-c1ccc(CNC(=O)[C@@H]2C[C@@H](O)CN2C(=O)[C@@H](NC(=O)C2(C#N)CC2)C(C)(C)C)c(OCCOCCOCCOCCOCCOc2cc(-c3scnc3C)ccc2CNC(=O)[C@@H]2C[C@@H](O)CN2C(=O)[C@@H](NC(=O)C2(C#N)CC2)C(C)(C)C)c1 [CMP108]			
110	89			CC(=O)N[C@H](C(=O)N1C[C@H](O)C[C@H]1C(=O)NCc1ccc(-c2scnc2C)cc1OCCOCCOCCOCCOCCOCC(=O)N[C@H](C(=O)N1C[C@H](O)C[C@H]1C(=O)NCc1ccc(-c2scnc2C)cc1)C(C)(C)C)C(C)(C)C [CMP112]			
62	104	No shift	unable to induce degradation of VHL	Cc1ncsc1-c1ccc(CNC(=O)[C@H]2C[C@@H](O)CN2C(=O)[C@H](NC(=O)COCCOCCOCCOCCOCC(=O)N[C@H](C(=O)N2C[C@H](O)C[C@H]2C(=O)NCc2ccc(-c3scnc3C)cc2)C(C)(C)C)C(C)(C)C)cc1 [CMP99, N ^1-((R)-1-((2R,4R)-4-hydroxy-2-((4-(4-methylthiazol-5-yl)benzyl)carbamoyl)pyrrolidin-1-yl)-3,3-dimethyl-1-oxobutan-2-yl)-N ^17-((S)-1-((2S,4R)-4-hydroxy-2-((4-(4-methylthiazol-5-yl)benzyl)carbamoyl)pyrrolidin-1-yl)-3,3-dimethyl-1-oxobutan-2-yl)-3,6,9,12,15-pentaoxaheptadecanediamide]			elution volume of small peak in SEC (V19CB): 13.5 mL; ΔG (pVHL19 [3]; 25 °C, pVHL19): –9.33 ± 0.06 kcal mol^−1; ΔH (pVHL19 [3]; 25 °C, pVHL19): –6.23 ± 0.05 kcal mol^−1; −TΔS (pVHL19 [3]; 25 °C, pVHL19): –3.1 ± 0.7 kcal mol^−1; Kd (pVHL19 [3]; 25 °C, pVHL19 (V19CB)): 146 ± 2 nM; n (pVHL19 [3]; 25 °C, stoichiometry of binding, pVHL19 (V19CB)): 0.964 ± 0.005; ΔG (pVHL30 [4]; pVHL30): –9.51 ± 0.05 kcal mol^−1; ΔH (pVHL30 [4]; pVHL30): –5.19 ± 0.03 kcal mol^−1; −TΔS (pVHL30 [4]; pVHL30): –4.3 ± 0.1 kcal mol^−1; Kd (pVHL30 [4]; pVHL30 (V30CB)): 106 ± 10 nM; n (pVHL30 [4]; stoichiometry of binding, pVHL30 (V30CB)): 1.050 ± 0.004

Source: article PMC5635026, “Homo-PROTACs: bivalent small-molecule dimerizers of the VHL E3 ubiquitin ligase to induce self-degradation” (Nature Communications, 2017)
